# Columns and labels:
# hCB2R [1] = biological target: T1, hCB2R (Homo sapiens, UniProt P34972); experiment: [3H]CP55,940 radioligand displacement assay, CHO cell membranes; format: binding
# T1 construct: host or cells: HitHunter CHO-K1 cells
# Method: (§1) CHO cells stably expressing hCB1R or hCB2R were maintained at 37 °C and 5% CO2 in Gibco Ham’s F-12 nutrient mix (Fisher Scientific, Loughborough, UK ) supplemented with 2 mM L-glutamine, 10% fetal bovine serum (FBS), 0.6% penicillin−streptomycin (Fisher Scientific, Loughborough UK), and the disulfate salt of geneticin (G418) as previously described (Sigma-Aldrich, Poole, UK). For subsequent radioligand displacement assays, membranes were prepared by scraping cells from flasks, centrifuging the cells, and storing the cell pellet at −20 °C. When required for us, cell pellets were defrosted and diluted in tris buffer (50 mM Tris-HCl and 50 mM Tris-base). As we have described in previous studies, HitHunter (cAMP) and PathHunter (βarrestin2) CHO-K1 cells stably expressing hCB1R or hCB2R from DiscoveRx® (Eurofins, Fremont, CA, USA) were maintained at 37 °C, 5% CO2 in F-12 DMEM containing 10% FBS and 1% Pen/Strep with 800 µg/mL geneticin (HitHunter) or 800 µg/mL G418 and 300 µg/mL hygromycin B (PathHunter).
# (§2) We have previously described radioligand displacement assays in detail. […] Binding reactions were terminated by ice-cold tris binding buffer and subsequent vacuum filtration (24-well sampling manifold (Brandel cell harvester; Brandel Inc., Gaithersburg, MD, USA)) using Brandel GF/B filters soaked in wash buffer at 4 °C for at least 24 h. Filters were washed with 1.2 mL of tris-binding buffer six times, then oven-dried for 60 min before being incubated in 3 mL of scintillation fluid (Ultima Gold XR, PerkinElmer, Seer Green, Buckinghamshire, UK). Radioactivity was quantified by liquid scintillation spectrometry. All compounds were first prepared at 10 mM solutions in DMSO. The final vehicle concentration for assays was 0.1% DMSO. All assays were performed in duplicate.
# (§3) Estimates of Ki, EC50, and Emax were determined using non-linear regression three-parameters (GraphPad, Prism, v. 9.0).
# hCB1R = biological target: T2, hCB1R (Homo sapiens, UniProt P21554); experiment: as above; format: binding
# T2 construct: expressed in transfected cells; host or cells: CHO cells (membranes)
# Method: as §1, §2, §3
# ERK1/2 = ERK1/2 Western blot and densitometric analysis; format: cell-based, human; settings: SH-SY5Y cells
# Text: Among the CB2R agonists tested, we selected FG158a as it provides the best dose–response curve in SH-SY5Y cells (Figure 4B). The effect of CB2R agonists on the ERK pathway has been previously detected in other tumor models such as a breast cancer model. The dysregulation of the ERK/MAPK pathway is crucial in neuroblastoma. […] We addressed the effect of FG158a on MAPK kinase activation by the evaluation of its component ERK1/2 in the presence and in the absence of the antagonist SR144528 (Figure 6).
# After the treatment with FG158a (20 μM) in the presence and absence of SR144528 (added 1 h before the CB2R agonist at the concentration of 1 µM), SHSY5Y cells were centrifuged and cell pellets were lysed in R.I.P.A. buffer (50 mM Tris-HCl, pH = 7.4; 150 mM NaCl; […], 1% NP-40; 0.5% sodium deoxycholate; 0.1% SDS; 1:100 phosphatase and protease inhibitors, both added before the lysis). Samples were centrifuged (17,900× g 20′ at 4 °C) and protein concentration was determined by Bio-Rad Protein Assay (Bio-Rad, Berkeley, CA, USA) as previously described. […]
# Figure 6 FG158a inhibition of ERK1/2 is mediated by CB2R. […] The statistical analysis was performed by parametric two tailed t-test (* p < 0.05 FG158a calculated with respect to the CTR; ^& p < 0.01 FG158a+SR144528 calculated with respect to FG158a).
# hCB2R [2] = biological target: T1, hCB2R; experiment: HitHunter cAMP assay: inhibition of FSK-stimulated cAMP accumulation in CHO cells; format: cell-based
# Method: For the cAMP inhibition assay, cells were treated with 10 μM FSK and synthetized compounds for 90 min to assess compound concentration-dependent activity.
# as §1
# The quantification of FSK-stimulated cAMP accumulation using the DiscoveRx HitHunter assay (DiscoveRx, Eurofins, Fremont, CA, USA) has been described in detail previously elsewhere. Briefly, 20,000 cells/well were plated in low-volume 96-well plates and incubated overnight in Opti-MEM with 1% FBS at 37 °C and 5% CO2. The next day, the media were replaced with cell assay buffer (DiscoveRx). Immediately after this, the cells were simultaneously treated with 10 µM FSK and ligands for 90 min. Subsequent additions of cAMP antibody solution and cAMP working detection solutions followed the manufacturer’s directions (DiscoveRx) and cells were stored for 60 min at room temperature. cAMP solution A (DiscoveRx) was added according to the manufacturer’s directions followed by another 60 min room temperature incubation prior to chemiluminescence being measured on a Cytation5 plate reader (top read, gain 200, integration time 10,000 ms).
# as §3
# Data are fitted to a non−linear regression (three parameter model, GraphPad v. 9.0). Data are mean ± S.E.M. of 6 independent experiments performed in triplicate.
# [3] = CHO membranes, 0.1 nM-10 μM compounds
# T1 sequence (P34972 whole entry): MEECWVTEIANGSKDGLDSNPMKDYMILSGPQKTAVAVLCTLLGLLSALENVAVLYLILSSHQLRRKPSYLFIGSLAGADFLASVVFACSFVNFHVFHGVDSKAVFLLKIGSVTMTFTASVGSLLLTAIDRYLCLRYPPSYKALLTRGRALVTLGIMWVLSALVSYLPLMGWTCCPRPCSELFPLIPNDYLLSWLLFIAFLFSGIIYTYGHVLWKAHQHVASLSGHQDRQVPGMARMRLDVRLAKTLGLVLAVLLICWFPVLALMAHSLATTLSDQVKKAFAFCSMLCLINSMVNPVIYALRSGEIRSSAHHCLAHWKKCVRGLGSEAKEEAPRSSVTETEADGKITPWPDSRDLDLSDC
# T2 sequence (P21554 whole entry): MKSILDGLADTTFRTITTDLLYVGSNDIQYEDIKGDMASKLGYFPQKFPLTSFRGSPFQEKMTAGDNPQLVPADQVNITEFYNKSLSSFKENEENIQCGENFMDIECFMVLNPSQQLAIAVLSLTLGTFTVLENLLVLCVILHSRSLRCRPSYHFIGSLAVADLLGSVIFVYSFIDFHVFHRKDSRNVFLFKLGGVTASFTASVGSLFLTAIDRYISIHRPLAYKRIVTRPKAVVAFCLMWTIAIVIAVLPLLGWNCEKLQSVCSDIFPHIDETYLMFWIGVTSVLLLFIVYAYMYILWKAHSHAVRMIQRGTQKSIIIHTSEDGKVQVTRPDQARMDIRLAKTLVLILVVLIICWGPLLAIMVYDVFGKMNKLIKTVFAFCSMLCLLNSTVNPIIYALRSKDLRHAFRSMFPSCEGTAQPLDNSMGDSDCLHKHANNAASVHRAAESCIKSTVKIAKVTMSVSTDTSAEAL
smiles,measurement,setting,value
"CC1CCC(NC(=O)c2cc3cccnc3n(CCCCCBr)c2=O)CC1 (stereo not drawn) [FG158a, 1-(5-bromopentyl)-N-(4-methylcyclohexyl)-2-oxo-1,2-dihydro-1,8-naphthyridine-3-carboxamide]",melting point,,121 to 123 °C
same,Ki,hCB2R [1],0.021 µM
same,"displacement of [3H]CP55,940 at hCB2R",hCB2R [1]; [3],"fully displaced [^3H]CP55,940"
same,Ki,hCB1R,> 10 µM
same,"displacement of [3H]CP55,940 at hCB1R",hCB1R; [3],"not able to displace [^3H]CP55,940"
same,effect on ERK1/2 expression in presence of SR144528,ERK1/2; 20 µM FG158a + SR144528 1 µM added 1 h before,reversed the inhibitory effect
same,effect on ERK1/2 expression,"ERK1/2; 20 µM, vs untreated control cells",inhibited ERK1/2 expression
same,EC50,hCB2R [2],> 10 µM
same,modulation of cAMP response,"hCB2R [2]; CHO cells expressing hCB2R, 10 μM FSK, 90 min",not to affect this signaling pathway

# Reference: paper PMC9101764, “Synthesis and In Vitro Characterization of Selective Cannabinoid CB2 Receptor Agonists: Biological Evaluation against Neuroblastoma Cancer Cells” (Molecules, 2022)
